Test results: patent US6916923B2 (Hoffmann-La Roche Inc., priority 1999, dated 2005)

What was measured:
[1] = target: T1, Recombinant active human Cyclin E/CDK2 complexes (Homo sapiens, UniProt P24941); assay: CDK2 FlashPlate Assay (inhibition of Rb phosphorylation); format: biochemical; conditions: Cyclin E/CDK2, Rb substrate, 33P-ATP, 25 minutes at room temperature; read-out: Inhibition of Cdk2 - IC50 Range
T1 construct: made in house; host or cells: insect cells
Method: To determine inhibition of CDK2 activity, purified recombinant retinoblastoma (Rb) protein was coated on 96 well FlashPlates (New England Nuclear, Boston, Mass.). Rb is a natural substrate for phosphorylation by CDK2 (Herwig and Strauss Eurr. J. Biochem., Vol. 246 (1997) pp. 581-601 and references therein). Recombinant active human Cyclin E/CDK2 complexes were partially purified from extracts of insect cells. The active Cyclin E/CDK2 was added to the Rb-coated FlashPlates along with ^33P-ATP and dilutions of test compounds. Plates were incubated for 25 minutes at room temperature with shaking, then washed and counted in the Topcount scintillation counter (Packard Instrument Co., Downers Grove, Ill.). Dilutions of test compounds were tested in duplicate in each assay. The percent inhibition of Rb phosphorylation, which is a measure of the inhibition of CDK2 activity, was determined according to the following formula: [formula] where “test compound” refers to the average counts per minute of the test duplicates, “nonspecific” refers to the average counts per minute when no Cyclin E/CDK2 was added, and “total” refers to the average counts per minute when no compound was added.

[2] = test system: colon carcinoma line HCT-116; assay: HCT-116 cell-based antiproliferative (MTT) assay; conditions: Homo sapiens, HCT-116, 96 h, 1000 cells per well, 4 days post addition of test compound, read-out: Antiproliferative Activity HCT 116 (colon) Assay - IC50 Range
Method: (§1) The estrogen receptor negative epithelial breast carcinoma line (MDA-MB-435) was purchased from American Type Cell Culture Collection (ATCC; Rockville, Md.) and was grown in the medium recommended by ATCC. For analysis of the effect of the test compounds on growth of these cells, the cells were plated at 2000 cells per well in a 96-well tissue culture plate, and were incubated overnight at 37° C. with 5% CO2. The next day, the test compounds were dissolved in 100% dimethyl sulfoxide (DMSO) to yield a 10 mM stock solution. Each compound was diluted with sterile medium to 1 mM in a sufficient quantity to yield a final concentration of 120 μM. The compounds were then serially diluted in medium with 1.2% DMSO. One-fourth final volume of the diluted compounds was transferred to 96 well plates. Test compounds were assayed in duplicate. DMSO was added to a row of “control cells” such that the final concentration of DMSO in each well was 0.3%. Wells to which no cells were added served as the “blank.” Wells to which no inhibitor was added served as “no inhibitor control”. The plates were returned to the incubator, and 5 days post addition of test compound, were analyzed as described below.
(§2) 3-(4,5-Dimethylthiazole-2-yl)-2,5-diphenyl-2H-tetrazolium bromide (thiazolyl blue; MTT) was added to each well to yield a final concentration of 1 mg/mL. The plates were then incubated at 37° C. for 3 hours. The plates were centrifuged at 1000 rpm for 5 minutes prior to aspiration of the MTT-containing medium. The MTT-containing medium was then removed and 100 μL 100% ethanol was added to each well to dissolve the resulting formazan metabolite. To ensure complete dissolution, plates were shaken for 15 minutes at room temperature. Absorbencies were read in a microtiter plate reader (Molecular Dynamics) at a wavelength of 570 nm with a 650 nm reference. Percent inhibition was calculated by subtracting the absorbance of the blank (no cell) wells from all wells, then subtracting the division of the average absorbance of each test duplicate by the average of the controls from 1.00. Inhibitory concentrations (IC50) were determined from the linear regression of a plot of the logarithm of the concentration versus the percent inhibition.
(§3) The colon adenocarcinoma line SW480 and the colon carcinoma line HCT-116 also were obtained from the ATCC and were tested according to the same protocol provided above for MDA-MB435 cell based assay with the following modifications. Cell line SW480 was plated at 1000 cells per well and analyzed at 6 days post addition of the test compound. Cell line HCT-116 was plated at 1000 cells per well and analyzed at 4 days post addition of test compound.

[3] = test system: colon adenocarcinoma line SW480; assay: SW480 cell-based antiproliferative (MTT) assay; conditions: Homo sapiens, SW480, 144 h, 1000 cells per well, 6 days post addition of test compound, read-out: Antiproliferative Activity SW480 (colon) Assay - IC50 Range
Method: as §1, §2, §3

[4] = test system: estrogen receptor negative epithelial breast carcinoma line (MDA-MB-435); assay: MDA-MB-435 cell-based antiproliferative (MTT) assay; conditions: Homo sapiens, MDA-MB-435, 120 h, 2000 cells per well, 5 days post addition of test compound, read-out: Antiproliferative Activity of MDA-MB435 (breast) Assay - IC50 Range
Method: as §1, §2

| Compound | IC50 [1] | IC50 [2] | IC50 [3] | IC50 [4] |
| --- | --- | --- | --- | --- |
| Fc1ccccc1C1=Nc2c[nH]nc2Nc2ccccc21 [Compound A10, 5-(2-fluorophenyl)-pyrazolo[3,4][1,4]benzodiazepine] | 1 to 9.99 µM | 10 to 30 µM | 10 to 30 µM | – |
| CS(=O)(=O)c1ccc2c(c1)C(c1ccccc1)=Nc1c[nH]nc1N2 [Compound A14, 5-phenyl-7-methanesulfonyl-pyrazolo[3,4][1,4]benzodiazepine] | 1 to 9.99 µM | 10 to 30 µM | – | – |
| O=[N+]([O-])c1ccc2c(c1)C(c1ccccc1)=Nc1c[nH]nc1N2 [Compound A16, 5-phenyl-7-nitro-pyrazolo[3,4][1,4]benzodiazepine] | 0.01 to 0.99 µM | 10 to 30 µM | – | – |
| O=[N+]([O-])c1ccc2c(c1)C(c1ccccc1Cl)=Nc1c(n[nH]c1-c1ccc[nH]1)N2 [Compound B1, 3-(2-pyrrolyl)-5-(2-chlorophenyl)-7-nitro-pyrazolo[3,4][1,4]benzodiazepine] | 0.01 to 0.99 µM | 1.1 to 9.99 µM | 1.1 to 9.99 µM | – |
| COc1ccc2c(c1)C(c1ccccc1Cl)=Nc1c(n[nH]c1C)N2 [Compound B18, 3-methyl-5-(2-chlorophenyl)-7-methoxy-pyrazolo[3,4][1,4]benzodiazepine] | 0.01 to 0.99 µM | – | 1.1 to 9.99 µM | 1.1 to 9.99 µM |
| Cc1[nH]nc2c1N=C(c1ccccc1Cl)c1cc(Cl)ccc1N2 [Compound B20, 3-methyl-5-(2-chlorophenyl)-7-chloro-pyrazolo[3,4][1,4]benzodiazepine] | 0.01 to 0.99 µM | – | 1.1 to 9.99 µM | 1.1 to 9.99 µM |
| Cc1[nH]nc2c1N=C(c1ccccc1)c1cc(F)ccc1N2 [Compound B22, 3-methyl-5-phenyl-7-fluoro-pyrazolo[3,4][1,4]benzodiazepine] | 0.01 to 0.99 µM | – | 1.1 to 9.99 µM | 0.01 to 1 µM |
| O=[N+]([O-])c1ccc2c(c1)C(c1ccccc1Cl)=Nc1c(n[nH]c1-c1ccccc1)N2 [Compound B23, 3-phenyl-5-(2-chlorophenyl)-7-nitro-pyrazolo[3,4][1,4]benzodiazepine] | 0.01 to 0.99 µM | 10 to 30 µM | 10 to 30 µM | – |
| Cc1[nH]nc2c1N=C(c1ccccc1Cl)c1ccccc1N2 [Compound B30, 3-methyl-5-(2-chlorophenyl)-pyrazolo[3,4][1,4]benzodiazepine] | 0.01 to 0.99 µM | – | 1.1 to 9.99 µM | 1.1 to 9.99 µM |
| C=CC(=O)Nc1ccc2c(c1)C(c1ccccc1Cl)=Nc1c(n[nH]c1C)N2 [Compound C8, N-(3-methyl-5-(2-chlorophenyl)-pyrazolo[3,4][1,4]benzodiazepin-7-yl)-2-propenamide] | 0.01 to 0.99 µM | – | 0.01 to 1 µM | 0.01 to 1 µM |
| Cc1[nH]nc2c1N=C(c1ccccc1Cl)c1cc(NS(C)(=O)=O)ccc1N2 [Compound C9, N-(3-methyl-5-(2-chlorophenyl)-pyrazolo[3,4][1,4]benzodiazepin-7-yl)-methanesulfonamide] | 0.01 to 0.99 µM | – | 0.01 to 1 µM | 0.01 to 1 µM |
| O=[N+]([O-])c1ccc2c(c1)C(c1ccccc1Cl)=Nc1c(n[nH]c1CO)N2 [Compound C14, 3-hydroxymethyl-5-(2-chlorophenyl)-7-nitro-pyrazolo[3,4][1,4]benzodiazepine] | 0.01 to 0.99 µM | – | 0.01 to 1 µM | 0.01 to 1 µM |
| COCc1[nH]nc2c1N=C(c1ccccc1Cl)c1cc([N+](=O)[O-])ccc1N2 [Compound C16, 3-methoxymethyl-5-(2-chlorophenyl)-7-nitro-pyrazolo[3,4][1,4]benzodiazepine] | 0.01 to 0.99 µM | – | – | 1.1 to 9.99 µM |
| C=Cc1[nH]nc2c1N=C(c1ccccc1Cl)c1cc([N+](=O)[O-])ccc1N2 [Compound C17, 3-ethenyl-5-(2-chlorophenyl)-7-nitro-pyrazolo[3,4][1,4]benzodiazepine] | 0.01 to 0.99 µM | – | – | 0.01 to 1 µM |
| N#Cc1[nH]nc2c1N=C(c1ccccc1Cl)c1cc([N+](=O)[O-])ccc1N2 [Compound C18, 5-(2-chlorophenyl)-7-nitro-pyrazolo[3,4][1,4]benzodiazepine-3-carbonitrile] | 0.01 to 0.99 µM | – | – | 10 to 30 µM |
| O=[N+]([O-])c1ccc2c(c1)C(c1ccccc1)=Nc1c(n[nH]c1C1CC1)N2 [Compound D18] | 0.01 to 0.99 µM | 10 to 30 µM | – | – |

Next, values leading:

| IC50 [1] | IC50 [2] | IC50 [3] | IC50 [4] | Compound |
| --- | --- | --- | --- | --- |
| 1 to 9.99 µM | 10 to 30 µM | 10 to 30 µM | – | c1ccc(C2=Nc3c[nH]nc3Nc3ccccc32)cc1 [Compound A9, 5-phenyl-pyrazolo[3,4][1,4]benzodiazepine] |
| 0.01 to 0.99 µM | 10 to 30 µM | 10 to 30 µM | – | Clc1ccccc1C1=Nc2c[nH]nc2Nc2ccccc21 [Compound A21, 5-(2-chlorophenyl)-pyrazolo[3,4][1,4]benzodiazepine] |
| 0.01 to 0.99 µM | – | 1.1 to 9.99 µM | 1.1 to 9.99 µM | Cc1[nH]nc2c1N=C(c1ccccc1)c1cc(Cl)ccc1N2 [Compound B19, 3-methyl-5-phenyl-7-chloro-pyrazolo[3,4][1,4]benzodiazepine] |
| 0.01 to 0.99 µM | – | 0.01 to 1 µM | 1.1 to 9.99 µM | Cc1[nH]nc2c1N=C(c1ccccc1F)c1ccccc1N2 [Compound B21, 3-methyl-5-(2-fluorophenyl)-pyrazolo[3,4][1,4]benzodiazepine] |
| 0.01 to 0.99 µM | – | 1.1 to 9.99 µM | 0.01 to 1 µM | Cc1[nH]nc2c1N=C(c1ccccc1F)c1cc(I)ccc1N2 [Compound B29, 3-methyl-5-(2-fluorophenyl)-7-iodo-pyrazolo[3,4][1,4]benzodiazepine] |
| 0.01 to 0.99 µM | – | 0.01 to 1 µM | 0.01 to 1 µM | Cc1[nH]nc2c1N=C(c1ccccc1F)c1cc([N+](=O)[O-])ccc1N2 [Compound B31, 3-methyl-5-(2-fluorophenyl)-7-nitro-pyrazolo[3,4][1,4]benzodiazepine] |
| 0.01 to 0.99 µM | – | 0.01 to 1 µM | 0.01 to 1 µM | N#Cc1ccc2c(c1)C(c1ccccc1F)=Nc1c(n[nH]c1CO)N2 [Compound B35, 3-hydroxymethyl-5-(2-fluorophenyl)-pyrazolo[3,4][1,4]-benzodiazepine-7-carbonitrile] |
| 0.01 to 0.99 µM | 10 to 30 µM | – | – | O=C(NCCO)c1ccc2c(c1)C(c1ccccc1F)=Nc1c[nH]nc1N2 [Compound C2, N-(2-hydroxyethyl)-5-(2-fluorophenyl)-pyrazolo[3,4][1,4]benzodiazepine-7-carboxamide] |
| 0.01 to 0.99 µM | – | 0.01 to 1 µM | 0.01 to 1 µM | Cc1[nH]nc2c1N=C(c1ccccc1Cl)c1cc(N)ccc1N2 [Compound C4] |
| 0.01 to 0.99 µM | – | 0.01 to 1 µM | 0.01 to 1 µM | CC(=O)Nc1ccc2c(c1)C(c1ccccc1Cl)=Nc1c(n[nH]c1C)N2 [Compound C7, N-(3-methyl-5-(2-chlorophenyl)-pyrazolo[3,4][1,4]benzodiazepin-7-yl)-acetamide] |
| 0.01 to 0.99 µM | 1.1 to 9.99 µM | 10 to 30 µM | – | NNC(=O)c1[nH]nc2c1N=C(c1ccccc1Cl)c1cc([N+](=O)[O-])ccc1N2 [Compound C12, N-amino-5-(2-chlorophenyl)-7-nitro-pyrazolo[3,4][1,4]benzodiazepine-3-carboxamide] |
| 0.01 to 0.99 µM | 10 to 30 µM | – | – | CSc1ccc(-c2[nH]nc3c2N=C(c2ccccc2Cl)c2cc([N+](=O)[O-])ccc2N3)cc1 [Compound D11] |
